From the supplement of paper PMC11919725

Legend:
Jurkat [1] = assay: confluency relative to DMSO, 18 h (ratio); higher = more viable
Procedure, shortened: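 Jurkat cells and primary CD4+/CD8+ T cells, naive or activated with CD3/CD28 Dynabeads for 48 h, were treated with compound (1 nM–10 µM, log10 steps) for 18 h at 37 °C. Following transfer of 100 µl into 96-well plates with IncuCyte Cytotox Dye and alamarBlue, wells were imaged at ×10, five images per well, each hour for 3 h. Confluency, obtained with the IncuCyte Basic Analyzer from phase-contrast images, is normalised to the mean of the control wells.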

Jurkat [2] = assay: cytotoxicity relative to DMSO, 18 h (ratio); higher = less cell death (drugs called cytotoxic fall below 1)
Procedure, shortened: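 Cytotoxicity was measured by IncuCyte fluorescence imaging after confluency correction and normalisation to mean control values. Cells (Jurkat, or primary CD4+/CD8+ T cells that were naive or pre-activated 48 h with CD3/CD28 Dynabeads) received compound at 1 nM–10 µM in log10 steps for 18 h at 37 °C, 5% CO2. Imaging used ×10 magnification, five images per well, taken hourly over 3 h in 96-well plates with 250 nM final IncuCyte Cytotox Dye in 100 µl of suspension.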

Jurkat [3] = assay: metabolic activity relative to DMSO, 18 h (ratio); higher = more viable
Procedure, shortened: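 Jurkat or primary CD4+/CD8+ T cells (naive, or activated 48 h with CD3/CD28 Dynabeads) were treated 18 h with compound at 1 nM–10 µM (log10 steps) at 37 °C, 5% CO2. Then 100 µl of suspension went into 96-well plates with alamarBlue (10% v/v final). After 3.5 h, fluorescence was read on a FluoStar Omega (excitation 544 nm, emission 584 nm). Metabolic activity is normalised to mean DMSO controls.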

Structure (SMILES)	confluency (Jurkat [1]; 1 nM)	confluency (Jurkat [1]; 10 nM)	confluency (Jurkat [1]; 100 nM)	confluency (Jurkat [1]; 1000 nM)	confluency (Jurkat [1]; 10000 nM)	cytotoxicity (Jurkat [2]; 1 nM)	cytotoxicity (Jurkat [2]; 10 nM)	cytotoxicity (Jurkat [2]; 100 nM)	cytotoxicity (Jurkat [2]; 1000 nM)	cytotoxicity (Jurkat [2]; 10000 nM)	metabolic activity (Jurkat [3]; 1 nM)	metabolic activity (Jurkat [3]; 10 nM)	metabolic activity (Jurkat [3]; 100 nM)	metabolic activity (Jurkat [3]; 1000 nM)	metabolic activity (Jurkat [3]; 10000 nM)
O=C1NC(=O)C(=Cc2ccc3nccc(-c4ccncc4)c3c2)S1	0.989	0.988	0.968	0.812	1.01	0.944	0.984	0.956	0.762	0.804	0.992	0.956	0.964	0.723	0.426
O=C(O)c1ccc(CN2CCC(CNC3CC3c3ccccc3)CC2)cc1 (stereo not given)	0.954	0.956	0.996	0.987	0.993	1	1.04	1.1	1.04	1.03	1.09	1.06	1.09	1.08	1.02
CC(C)CC(=O)Nc1n[nH]c2c1CN(C(=O)C1CCN(C)CC1)C2(C)C	0.887	0.876	0.978	0.97	0.591	0.914	0.908	1.05	1.07	0.406	1.17	1.2	1.26	1.24	0.438
Cc1c(Cn2c(C)nc3c(C(=O)O)cc(N4CCOCC4)cc32)cccc1C(F)(F)F	0.923	0.973	1.05	1.03	0.998	0.881	0.947	1.05	1.14	1.01	0.862	0.891	1	1.25	1.08
COc1ccc(-c2cc3c(C)nc(N)nc3n(C3CCC(OCCO)CC3)c2=O)cn1 (stereo not given)	1.01	0.951	0.927	0.741	0.9	1.02	0.94	0.882	0.666	0.721	1.08	1.01	0.734	0.562	0.402
COc1ccc(Cn2ccc3ccc(C(=O)NO)cc32)cc1	1.01	1.01	1	1.01	1	0.955	0.926	0.954	1.04	0.938	1.03	0.992	1.02	1.01	1.02
COCCN1CCN(Cc2ccc(-c3n[nH]c4c3C(=O)c3c(NC(=O)NN5CCOCC5)cccc3-4)cc2)CC1.Cl.Cl	0.976	0.788	0.898	0.951	0.909	0.969	0.715	0.581	0.639	0.62	1.05	0.968	0.223	0.221	0.198
Cc1sc2c(c1C)C(c1ccc(Cl)cc1)=NC(CC(=O)OC(C)(C)C)c1nnc(C)n1-2 (single isomer, unassigned; (+)) [(+)-JQ-1]	1.02	0.962	1.02	1.01	1.02	1.09	0.985	1.22	1.07	0.995	1.05	0.989	1.13	1.1	0.987
Nc1ncn(C2OC(CO)C(O)C2O)c(=O)n1 (stereo not given) [5-Azacytidine]	0.777	0.792	0.976	0.919	0.961	0.896	0.89	1.12	1	1.12	1.05	1.03	1.03	0.994	0.344
O=c1[nH]cc(F)c(=O)[nH]1 [5-Fluorouracil]	1	0.981	0.992	0.978	0.996	0.997	0.931	0.995	0.946	0.985	1.03	0.913	0.967	0.999	0.971
O=C(NO)c1cnc(NC2(c3ccccc3)CC2)nc1 [ACY738]	1.01	0.994	1.03	0.995	0.999	0.969	0.95	1.15	1.05	0.982	0.936	0.962	1.1	0.862	0.713
Cc1csc(-c2nnc(Nc3ccc(Oc4ncccc4-c4ccnc(N)n4)cc3)c3ccccc23)c1 [AMG-900]	0.926	0.91	0.92	0.874	0.878	0.919	0.897	0.856	0.848	0.823	0.99	0.973	1.02	0.871	0.865
